According to PubChem BioAssay AID308 (DTP/NCI, 2004):
“And” between values parts separate entries of the source, which are not always exact repeats. Identical values can stand only once. Toxic doses and inconclusive results are not listed.

Test system: BDF1 mice, L1210 6-MP/6-TG resistant leukemia ip, survival T/C
Experiment: NCI In Vivo Anticancer Drug Screen. Data for tumor model L1210 Leukemia resistant to 6-MP and 6-Thioguanine; NSC 755, NSC 752 (intraperitoneal) in B6D2F1 (BDF1) mice
Conditions: endpoint: mean survival time, higher = longer survival
Procedure: The antitumor activity of compounds was measured in mice bearing transplantable tumors. Survival or tumor size were measured and the results are expressed as the measurement made in the treated group (T) divided by the measurement made in the vehicle treated control group (C). The tumor model used in this assay is L1210 Leukemia resistant to 6-MP and 6-Thioguanine; NSC 755, NSC 752 (intraperitoneal) in B6D2F1 (BDF1) mice

[1] = dose: 6.25 mg/kg/injection, schedule: Q01DX015 (ip), vehicle: carboxymethylcellulose (CMC)
[2] = dose: 12.5 mg/kg/injection, schedule: Q01DX015 (ip), vehicle: carboxymethylcellulose (CMC)
[3] = dose: 50.0 mg/kg/injection, schedule: Q01DX015 (ip), vehicle: carboxymethylcellulose (CMC)
[4] = dose: 125.0 mg/kg/injection, schedule: Q01DX015 (ip), vehicle: carboxymethylcellulose (CMC)
[5] = dose: 25.0 mg/kg/injection, schedule: Q01DX Z (ip), vehicle: saline
[6] = dose: 37.5 mg/kg/injection, schedule: Q01DX Z (ip), vehicle: carboxymethylcellulose (CMC)
[7] = dose: 75.0 mg/kg/injection, schedule: Q01DX Z (ip), vehicle: carboxymethylcellulose (CMC)
[8] = dose: 75.0 mg/kg/injection, schedule: Q01DX015 (ip), vehicle: carboxymethylcellulose (CMC)
[9] = dose: 100.0 mg/kg/injection, schedule: Q01DX015 (ip), vehicle: carboxymethylcellulose (CMC)
[10] = dose: 120.0 mg/kg/injection, schedule: Q01DX001 (ip), vehicle: carboxymethylcellulose (CMC)
[11] = dose: 150.0 mg/kg/injection, schedule: Q01DX Z (ip), vehicle: carboxymethylcellulose (CMC)
[12] = dose: 180.0 mg/kg/injection, schedule: Q01DX001 (ip), vehicle: carboxymethylcellulose (CMC)
[13] = dose: 270.0 mg/kg/injection, schedule: Q01DX001 (ip), vehicle: carboxymethylcellulose (CMC)
[14] = dose: 12.0 mg/kg/injection, schedule: Q01DX Z (ip), vehicle: saline
[15] = dose: 15.0 mg/kg/injection, schedule: Q01DX Z (ip), vehicle: saline

Structure (SMILES): CC(=O)CSc1ncnc2nc[nH]c12
- T/C (dose: 3.12 mg/kg/injection, schedule: Q01DX015 (ip), vehicle: carboxymethylcellulose (CMC)): 93 % of control
- T/C [1]: 98 % of control
- T/C [2]: 103 % of control
- T/C (dose: 25.0 mg/kg/injection, schedule: Q01DX015 (ip), vehicle: carboxymethylcellulose (CMC)): 96 % of control
- T/C [3]: 96 % of control
- T/C (dose: 62.0 mg/kg/injection, schedule: Q01DX015 (ip), vehicle: carboxymethylcellulose (CMC)): 100 % of control
- T/C [4]: 100 % of control
- T/C (dose: 250.0 mg/kg/injection, schedule: Q01DX015 (ip), vehicle: carboxymethylcellulose (CMC)): 95 % of control

Structure (SMILES): CCCNc1ncnc2[nH]ncc12
- T/C [5]: 111 % of control

Structure (SMILES): CC/C(=C(/CC)c1ccc(O)cc1)c1ccc(O)cc1
- T/C (dose: 37.5 mg/kg/injection, schedule: Q01DX Z (sc), vehicle: steriod suspending solution): 90 % of control
- T/C (dose: 50.0 mg/kg/injection, schedule: Q01DX Z (sc), vehicle: steriod suspending solution): 95 % of control
- T/C (dose: 75.0 mg/kg/injection, schedule: Q01DX Z (sc), vehicle: steriod suspending solution): 94 % of control
- T/C (dose: 100.0 mg/kg/injection, schedule: Q01DX Z (sc), vehicle: steriod suspending solution): 94 % of control

Structure (SMILES): Cn1c(N)nc2nc[nH]c2c1=S
- T/C (dose: 18.75 mg/kg/injection, schedule: Q01DX Z (ip), vehicle: carboxymethylcellulose (CMC)): 98 % of control
- T/C [6]: 109 % of control
- T/C [7]: 109 % of control

Structure (SMILES): CCOC(=O)Sc1ncnc2nc[nH]c12
- T/C (dose: 14.0 mg/kg/injection, schedule: Q01DX Z (ip), vehicle: saline): 95 % of control
- T/C (dose: 28.0 mg/kg/injection, schedule: Q01DX Z (ip), vehicle: saline): 95 % of control
- T/C (dose: 56.0 mg/kg/injection, schedule: Q01DX Z (ip), vehicle: saline): 90 % of control

Structure (SMILES): OCC1OC(n2cnc3c(=S)nc[nH]c32)C(O)C1O (stereo unspecified)
- T/C [6]: 114 % of control
- T/C [3]: 93 % of control
- T/C [8]: 93 % of control
- T/C [7]: 92 % of control
- T/C [9]: 94 % of control
- T/C (dose: 112.0 mg/kg/injection, schedule: Q01DX010 (ip), vehicle: carboxymethylcellulose (CMC)): 94 % of control
- T/C [10]: 100 % of control
- T/C [4]: 90 % of control
- T/C (dose: 150.0 mg/kg/injection, schedule: Q01DX010 (ip), vehicle: carboxymethylcellulose (CMC)): 90 % of control
- T/C (dose: 150.0 mg/kg/injection, schedule: Q01DX015 (ip), vehicle: carboxymethylcellulose (CMC)): 95 % of control
- T/C [11]: 97 % of control
- T/C (dose: 180.0 mg/kg/injection, schedule: Q01DX001 (ip), vehicle: alkali diluted with saline): 110 % of control
- T/C [12]: 100 % of control
- T/C (dose: 225.0 mg/kg/injection, schedule: Q01DX010 (ip), vehicle: carboxymethylcellulose (CMC)): 88 % of control
- T/C (dose: 270.0 mg/kg/injection, schedule: Q01DX001 (ip), vehicle: alkali diluted with saline): 103 % of control
- T/C [13]: 100 % of control
- T/C (dose: 300.0 mg/kg/injection, schedule: Q01DX010 (ip), vehicle: carboxymethylcellulose (CMC)): 91 % of control
- T/C (dose: 300.0 mg/kg/injection, schedule: Q01DX Z (ip), vehicle: carboxymethylcellulose (CMC)): 92 % of control
- T/C (dose: 400.0 mg/kg/injection, schedule: Q01DX001 (ip), vehicle: alkali diluted with saline): 99 % of control
- T/C (dose: 400.0 mg/kg/injection, schedule: Q01DX001 (ip), vehicle: carboxymethylcellulose (CMC)): 96 % of control
- T/C (dose: 600.0 mg/kg/injection, schedule: Q01DX001 (ip), vehicle: alkali diluted with saline): 102 % of control
- T/C (dose: 600.0 mg/kg/injection, schedule: Q01DX001 (ip), vehicle: carboxymethylcellulose (CMC)): 101 % of control
- T/C (dose: 900.0 mg/kg/injection, schedule: Q01DX001 (ip), vehicle: alkali diluted with saline): 100 % of control

Structure (SMILES): Nc1nc(=S)c2ncn(C3OC(COC(=O)c4ccc(Cl)cc4)C(OC(=O)c4ccc(Cl)cc4)C3OC(=O)c3ccc(Cl)cc3)c2[nH]1 (stereo unspecified)
- T/C [1]: 88 % of control
- T/C [2]: 87 % of control
- T/C [9]: 86 % of control

Structure (SMILES): CCCSc1nc(N)nc2nc[nH]c12
- T/C [14]: 114 % of control
- T/C [5]: 106 % of control
- T/C (dose: 50.0 mg/kg/injection, schedule: Q01DX Z (ip), vehicle: saline): 107 % of control
- T/C (dose: 100.0 mg/kg/injection, schedule: Q01DX Z (ip), vehicle: saline): 103 % of control
- T/C [11]: 91 % of control

Structure (SMILES): O=C(Nc1ccc(C2=NCCCN2)cc1)c1ccc(C(=O)Nc2ccc(C3=NCCCN3)cc2)cc1
- T/C (dose: 0.46 mg/kg/injection, schedule: Q01DX Z (ip), vehicle: carboxymethylcellulose (CMC)): 106 % of control
- T/C (dose: 1.87 mg/kg/injection, schedule: Q01DX Z (ip), vehicle: carboxymethylcellulose (CMC)): 178 % of control
- T/C (dose: 3.75 mg/kg/injection, schedule: Q01DX Z (ip), vehicle: carboxymethylcellulose (CMC)): 154 % of control and 195 % of control
- T/C (dose: 7.5 mg/kg/injection, schedule: Q01DX Z (ip), vehicle: carboxymethylcellulose (CMC)): 155 % of control
- T/C (dose: 15.0 mg/kg/injection, schedule: Q01DX Z (ip), vehicle: carboxymethylcellulose (CMC)): 113 % of control

Structure (SMILES): O=c1[nH]cnc2c1nnn2C1OC(CO)C(O)C1O (stereo unspecified)
- T/C (dose: 50.0 mg/kg/injection, schedule: Q01DX009 (ip), vehicle: saline): 111 % of control
- T/C (dose: 76.0 mg/kg/injection, schedule: Q01DX009 (ip), vehicle: saline): 118 % of control
- T/C (dose: 114.0 mg/kg/injection, schedule: Q01DX009 (ip), vehicle: saline): 156 % of control and 171 % of control
- T/C (dose: 256.0 mg/kg/injection, schedule: Q01DX009 (ip), vehicle: saline): 112 % of control

Structure (SMILES): CSc1ncnc2nc[nH]c12
- T/C (dose: 30.0 mg/kg/injection, schedule: Q01DX015 (ip), vehicle: carboxymethylcellulose (CMC)): 89 % of control
- T/C (dose: 31.0 mg/kg/injection, schedule: Q01DX Z (ip), vehicle: carboxymethylcellulose (CMC)): 97 % of control
- T/C (dose: 45.0 mg/kg/injection, schedule: Q01DX015 (ip), vehicle: carboxymethylcellulose (CMC)): 103 % of control
- T/C (dose: 60.0 mg/kg/injection, schedule: Q01DX015 (ip), vehicle: carboxymethylcellulose (CMC)): 88 % of control
- T/C (dose: 62.5 mg/kg/injection, schedule: Q01DX Z (ip), vehicle: carboxymethylcellulose (CMC)): 92 % of control
- T/C [8]: 89 % of control
- T/C (dose: 90.0 mg/kg/injection, schedule: Q01DX015 (ip), vehicle: carboxymethylcellulose (CMC)): 86 % of control
- T/C [10]: 95 % of control and 104 % of control
- T/C (dose: 125.0 mg/kg/injection, schedule: Q01DX Z (ip), vehicle: carboxymethylcellulose (CMC)): 88 % of control
- T/C [12]: 92 % of control
- T/C [13]: 94 % of control

Structure (SMILES): C=CC(CN1CC1)OC(C)=O (stereo unspecified)
- T/C (dose: 3.0 mg/kg/injection, schedule: Q01DX Z (ip), vehicle: saline): 116 % of control
- T/C [14]: 150 % of control
- T/C [15]: 91 % of control

Structure (SMILES): Nc1nc(=S)c2ncn(C3OC(CO)CC3O)c2[nH]1 (stereo unspecified)
- T/C (dose: 1.5 mg/kg/injection, schedule: Q01DX009 (ip), vehicle: other): 99 % of control
- T/C (dose: 3.0 mg/kg/injection, schedule: Q01DX009 (ip), vehicle: other): 99 % of control
- T/C (dose: 6.0 mg/kg/injection, schedule: Q01DX009 (ip), vehicle: other): 107 % of control
- T/C (dose: 12.5 mg/kg/injection, schedule: Q01DX015 (ip), vehicle: other): 87 % of control

Structure (SMILES): CC(=O)N(C)C
- T/C (dose: 7.5 mg/kg/injection, schedule: Q01DX Z (ip), vehicle: saline): 115 % of control
- T/C [15]: 110 % of control
- T/C (dose: 30.0 mg/kg/injection, schedule: Q01DX Z (ip), vehicle: saline): 107 % of control
- T/C (dose: 62.5 mg/kg/injection, schedule: Q01DX Z (ip), vehicle: saline): 110 % of control
- T/C (dose: 125.0 mg/kg/injection, schedule: Q01DX Z (ip), vehicle: saline): 114 % of control
- T/C (dose: 250.0 mg/kg/injection, schedule: Q01DX Z (ip), vehicle: saline): 109 % of control
- T/C (dose: 500.0 mg/kg/injection, schedule: Q01DX Z (ip), vehicle: saline): 120 % of control

Structure (SMILES): CSc1ncnc2c1ncn2CO
- T/C (dose: 50.0 mg/kg/injection, schedule: Q01DX009 (ip), vehicle: other): 104 % of control
- T/C (dose: 100.0 mg/kg/injection, schedule: Q01DX009 (ip), vehicle: other): 110 % of control
